In patent publication US9512139B2, “Conformationally constrained, fully synthetic macrocyclic compounds” (POLYPHOR AG, priority 2009, dated 2016):

Assays:
[1] = Metabolic stability assay, CD-1 mouse microsomes; assay type: in vitro ADME; conditions: CD-1, mouse, microsomes; for Metabolic Stability T½ [min] mouse / Metabolic Stability 60 min mouse [% remain.]: both, 10 µM; for Metabolic Stability 60 min mouse [% remain.]: 1 h
Motilin Receptor = target: T1, Motilin Receptor (Homo sapiens, UniProt O43193); assay: Ca2+ assay (FLIPR) for the GPCR motilin receptor, agonist and antagonist mode; assay type: cell-based; conditions: antagonist mode
T1 construct: host or cells: Ca2+ optimized hematopoietic cell lines (rat)
Description: Ca^2+ Assays for the GPCRs Motilin Receptor, Prostaglandin F (FP) Receptor, 5-hydroxytryptamine 2B (5-HT2B) Receptor, and Purinoreceptor P2Y1
Assays were performed using on a FLIPR^TETRA fluorometric imaging plate reader (Molecular Devices) with ScreenWorks Version 2 (Molecular Devices) as device operating and data analysis software.
Dose dependent agonist and antagonist activities were determined. Percentage activation and percentage inhibition values were determined.
Percentage activation was determined upon initial addition of the sample compounds followed by 10 minutes incubation at 25° C. Following compound incubation, reference agonists were added at EC80 to determine percentage inhibition.
Reference agonists were purchased from reputable commercial vendors and prepared according to each ligand's specifications. All handling of ligands were done to ensure proper control throughout the experiments.
Example compounds were weighed on a Microbalance (Mettler MX5) and dissolved in 100% DMSO to a final concentration of 2.5 mM and subsequently diluted into the assay buffer.
The Assay buffer was a supplemented HBSS (Hank's Balanced Salt Solution). HBSS was supplemented with 20 mM HEPES (4-(2-hydroxyethyl)-piperazin-1-ethansulfonic acid) and 2.5 mM Probenecid (Sigma P8761).
GPCR assays were performed using Ca^2+ optimized hematopoietic cell lines (rat) with cultures never exceeding 90% confluency. […] After seeding, the assay plates were incubated for forty-five (45) minutes at room temperature. After room temperature incubation, the assay plates were incubated at 37° C. 5% CO2 for 24 hours prior to assaying.
All GPCR assays were performed using Fluo-8 Ca^2+ dye. Ca^2+ dye was prepared at 1× dye concentration in GPCR assay buffer. After 24 hours of incubation, cells were washed with GPCR assay buffer, and then Ca^2+-dye (100 μL/well) was added.
The plates were incubated for 90 minutes at 30° C. 5% CO2 prior to FLIPR assay.
Compound plates were prepared to add 50 μL/well during the agonist assay mode. During the FLIPR assay, 50 μL/well from the compound plate was diluted 3-fold into the existing 100 μL/well from the dye loading step. Therefore all compounds were prepared as 3× the final concentration desired in the assay.
After completion of the first single addition assay run, assay plate was removed from the FLIPR Tetra and placed at 25° C. for seven (7) minutes before antagonist assay.
Using the EC80 values determined during the agonist assay, all pre-incubated sample compound and reference antagonist (if applicable) wells were stimulated at the EC80 of the reference agonist. As reference ligands for the first three assays their obvious natural ligands motilin, prostaglandin F2α, and serotonin (5-HT, 5-Hydroxytryptamine) were used; and for the P2Y1 assay 2MeSATP (2-methyl-thio-adeno-sine 5′-triphosphate, i.e. (2R,3S,4R)-5-(6-amino-2-methylsulfanyl-purin-9-yl)-3,4-dihydroxy-tetrahydrofuran-2-yl]methyl (hydroxy-phosphonooxy-phosphoryl)hydrogen phosphate) was applied.
After the addition of the reference agonist fluorescence was monitored for 180 sec using FLIPR Tetra.
Data Analysis and Results:
From the FLIPR data, with negative control correction enabled, the maximum statistic for each well was exported and percentage activation relative to Emax control was calculated.

in vitro [2] = assay type: in vitro ADME, mouse; conditions: both, CD-1, mouse, plasma, 10 µM; for Plasma Stability 240 min mouse [% remain.]: 4 h
[3] = Metabolic stability assay, human microsomes; assay type: in vitro ADME; conditions: human, microsomes; for Metabolic Stability T½ [min] hum / Metabolic Stability 60 min hum [% remain.]: both, 10 µM; for Metabolic Stability 60 min hum [% remain.]: 1 h; for half-life at 10 µM: both sexes
in vitro [4] = assay type: in vitro ADME, human; conditions: human, plasma, 10 µM; for Plasma Stability 240 min hum [% remain.]: 4 h
Description: Example compounds were dissolved in DMSO/H2O 90:10 to a final concentration of 10 mM for plasma stability determination and metabolic stability determination.
Human plasma (3-5 donors, Blutspendedienst SRK, Basel) and CD-1 mouse plasma (mixed gender pool >50 animals, Innovative Research, CA, USA) are both sodium citrate stabilized. The assay is performed in triplicates at 10 μM compound concentration and 37° C. Samples are taken at 0, 15, 60, and 240 minutes and stopped by precipitation with 2 volumes of acetonitrile. The supernatant is collected, evaporated and reconstituted in a 5% acetonitrile solution to be analyzed by HPLC/MS/MS. The resulting peak area counts are expressed in percent of the 0 value and used to determine the endpoint stability in % and the half life in minutes. In order to monitor assay integrity the degradation of propantheline is assayed with every experimental set.
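For Plasma Stability 240 min mouse [% remain.] in this document: sodium citrate stabilized mouse plasma, parent compound quantified by HPLC/MS/MS relative to its peak area at time zero, run in triplicate.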
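For Plasma Stability T½ [min] mouse in this document: sodium citrate stabilized mouse plasma, parent compound quantified by HPLC/MS/MS relative to its peak area at time zero, run in triplicate.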

T1 sequence (O43193 whole entry, species assumed): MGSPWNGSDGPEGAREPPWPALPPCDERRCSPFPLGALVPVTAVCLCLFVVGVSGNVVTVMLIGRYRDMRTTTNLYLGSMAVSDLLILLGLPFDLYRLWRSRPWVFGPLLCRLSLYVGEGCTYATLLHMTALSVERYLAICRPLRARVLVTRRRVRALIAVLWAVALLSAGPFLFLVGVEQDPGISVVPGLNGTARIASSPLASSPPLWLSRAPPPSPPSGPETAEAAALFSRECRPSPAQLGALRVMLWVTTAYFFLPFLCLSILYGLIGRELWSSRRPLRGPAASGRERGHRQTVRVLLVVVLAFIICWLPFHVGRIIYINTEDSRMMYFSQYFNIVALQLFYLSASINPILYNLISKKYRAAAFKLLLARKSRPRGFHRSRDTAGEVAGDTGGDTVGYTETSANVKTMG

Metabolic Stability T½ [min] mouse [1] [min]	Metabolic Stability 60 min mouse [% remain.] [1] [% remain.]	IC50 (Motilin Receptor) [µM]	inhibition at 10 µM (Motilin Receptor; at 10 μM) [%]	Plasma Stability T½ [min] mouse (in vitro [2]) [min]	Plasma Stability 240 min mouse [% remain.] (in vitro [2])	Metabolic Stability T½ [min] hum [3] [min]	Metabolic Stability 60 min hum [% remain.] [3] [% remain.]	Plasma Stability T½ [min] hum (in vitro [4]) [min]	Plasma Stability 240 min hum [% remain.] (in vitro [4])	half-life at 10 µM [3] [h]	half-life at 10 µM ([1]; both sexes) [h]	Antagonist activity [% Inhibition at 10 μM] (Motilin Receptor; at 10 μM) [%]	Compound
> 60	77	0.78	79	> 240	100	> 60	74	> 240	100				CN(C)CCNC(=O)[C@@H]1CCC(=O)N(C)CC(=O)N2C[C@@H](NC(=O)Cc3c[nH]c4ccccc34)C[C@H]2COc2ccc(F)cc2C(=O)N1C [Ex. 11, (2S,11S,19aS)-N-[2-(dimethylamino)ethyl]-15-fluoro-2-{[2-(1H-indol-3-yl)acetyl]amino}-7,12-dimethyl-5,8,13-trioxo-2,3,6,7,8,9,10,11,12,13, 19,19a-dodecahydro-1H,5H-pyrrolo[2,1-c] [1,4,7,12]benzoxatriazacyclopentadecine-11-carboxamide]
> 60	100	0.2	99	> 240	90		11	> 240	100	0.35			CN1CC(=O)N2C[C@@H](NC(=O)Cc3cccc4ccccc34)C[C@H]2COc2ccc(F)cc2C(=O)N(C)[C@H](C(=O)NCCNC(=N)N)CCC1=O [Ex. 484, (2S,11S,19aS)-N-(2-{[amino(imino)methyl]amino}ethyl)-15-fluoro-7,12-dimethyl-2-{[2-(1-naphthyl)acetyl]amino}-5,8,13-trioxo-2,3,6,7,8,9,10,11,12,13,19,19a-dodecahydro-1H,5H-pyrrolo[2,1-c] [1,4,7,12] benzoxatriazacyclopentadecine-11-carboxamide]
			29										CN(C)CCNC(=O)[C@@H]1CCC(=O)N(C)CC(=O)N2C[C@@H](NC(=O)Cc3ccc4ccccc4c3)C[C@H]2COc2ccc(F)cc2C(=O)N1C [Ex. 48, (2S,11S,19aS)-N-[2-(dimethylamino)ethyl]-15-fluoro-7,12-dimethyl-2-{[2-(2-naphthyl)acetyl]amino}-5,8,13-trioxo-2,3,6,7,8,9,10,11,12,13,19,19a-dodecahydro-1H,5H-pyrrolo[2,1-c] [1,4,7,12] benzoxatriazacyclopentadecine-11-carboxamide]
	11	0.28	93	> 240	99		8	> 240	100	0.233	0.283		CN1CC(=O)N2CC(NC(=O)Cc3cccc4ccccc34)CC2COc2ccc(F)cc2C(=O)N(C)C(C(=O)NCCNc2ccccn2)CCC1=O [Ex. 485, [2S,11S,19aS)-15-fluoro-7,12-dimethyl-2-{[2-(1-naphthyl)acetyl]amino}-5,8,13-trioxo-N-[2-(2-pyridinylamino)ethyl]-2,3,6,7,8,9,10,11,12,13,19,19a-dodecahydro-1H,5H-pyrrolo[2,1-c] [1,4,7,12]benzoxatriaza-cyclopentadecine-11-carboxamide]
> 60	83	0.16	98	> 240	96		10	> 240	83	0.4			CN(C)CCNC(=O)[C@@H]1CCC(=O)N(C)CC(=O)N2C[C@@H](NC(=O)Cc3cccc4ccccc34)C[C@H]2COc2ccc(F)cc2C(=O)N1C [Ex. 49, (2S,11S,19aS}-N-[2-(dimethylamino)ethyl]-15-fluoro-7,12-dimethyl-2-{[2-(1-naphthyl)acetyl]amino}-5,8,13-trioxo-2,3,6,7,8,9,10,11,12,13,19,19a-dodecahydro-1H,5H-pyrrolo[2,1-c] [1,4,7,12] benzoxatriazacyclopentadecine-11-carboxamide]
												24	CN1CC(=O)N2C[C@@H](NC(=O)Cc3cccc4ccccc34)C[C@H]2COc2ccc(F)cc2C(=O)N(C)[C@H](C(=O)NCc2cccnc2)CCC1=O [Ex. 497, (2S,11S,19aS)-15-fluoro-7,12-dimethyl-2-{[2-(1-naphthyl)acetyl]amino}-5,8,13-trioxo-N-(3-pyridinylmethyl)-2,3,6,7,8,9, 10,11,12,13,19,19a-dodecahydro-1H,5H-pyrrolo[2,1-c][1,4,7,12]benzoxatriazacyclo-pentadecine-11-carboxamide]
> 60	85	0.023	100	> 240	100	> 60	55	> 240	100				CN1CC(=O)N2C[C@@H](NC(=O)Cc3cccc4ccccc34)C[C@H]2COc2ccc(F)cc2C(=O)N(C)[C@H](C(=O)NCCN)CCC1=O [Ex. 483, (2S,11S,19aS)-N-(2-aminoethyl)-15-fluoro-7,12-dimethyl-2-{[2-(1-naphthyl)acetyl]amino)-5,8,13-trioxo-2,3,6,7,8,9,10,11,12, 13,19,19a-dodecahydro-1H,5H-pyrrolo [2,1-c] [1,4,7,12]benzoxatriazacyclopentadecine-11-carboxamide]
> 60	100	0.18	93	> 240	98		13	> 240	100	0.383			CN(C)CCNC(=O)[C@@H]1CCC(=O)N(C)CC(=O)N2C[C@@H](NCCc3cccc4ccccc34)C[C@H]2COc2ccc(F)cc2C(=O)N1C [Ex. 486, (2S,11S,19aS)-N-[2-(dimethylamino)ethyl]-15-fluoro-7,12-dimethyl-2-{[2-(1-naphthyl)ethyl]amino}-5,8,13-trioxo-2,3,6,7,8,9,10,11,12,13,19,19a-dodecahydro-1H,5H-pyrrolo[2,1-c] [1,4,7,12]benzoxatri-azacyclopentadecine-11-carboxamide]

Compound	Metabolic Stability T½ [min] mouse [1] [min]	Metabolic Stability 60 min mouse [% remain.] [1] [% remain.]	IC50 (Motilin Receptor) [µM]	inhibition at 10 µM (Motilin Receptor; at 10 μM) [%]	Plasma Stability T½ [min] mouse (in vitro [2]) [min]	Plasma Stability 240 min mouse [% remain.] (in vitro [2])	Metabolic Stability T½ [min] hum [3] [min]	Metabolic Stability 60 min hum [% remain.] [3] [% remain.]	Plasma Stability T½ [min] hum (in vitro [4]) [min]	Plasma Stability 240 min hum [% remain.] (in vitro [4])	half-life at 10 µM [3] [h]	half-life at 10 µM ([1]; both sexes) [h]	Antagonist activity [% Inhibition at 10 μM] (Motilin Receptor; at 10 μM) [%]
CN(C)CCNC(=O)[C@@H]1CCC(=O)N(C)CC(=O)N2C[C@@H](NC(=O)Nc3cccc4ccccc34)C[C@H]2COc2ccc(F)cc2C(=O)N1C [Ex. 482, (2S,11S,19aS)-N-[2-(dimethylamino)ethyl]-15-fluoro-7,12-dimethyl-2-{[(1-naphthylamino)carbonyl]amino}-5,8,13-trioxo-2,3,6,7,8,9,10, 11,12,13,19,19a-dodecahydro-1H,5H-pyrrolo [2,1-c] [1,4,7,12]benzoxatriazacyclopentadecine-11-carboxamide]	> 60	84	1.1	62	> 240	100		11	> 240	100	0.367		
